Experimental data as given in US9763925B2, “Antibacterial compounds” (SUMMIT THERAPEUTICS PLC, priority 2008, dated 2017).
≈ marks a conversion by molar mass, not a printed value.

What was measured:
[1] = tested on: MDR Streptococcus pneumoniae strain (MDR); assay: MIC by broth microdilution against MDR Streptococcus pneumoniae; details: read-out: MIC (MDR)
Enterococcus faecium = assay: MIC by broth microdilution against Enterococcus faecium
[2] = tested on: Streptococcus pneumoniae ATCC49619; assay: MIC by broth microdilution against Streptococcus pneumoniae ATCC49619; details: ATCC49619, read-out: MIC (ATCC49619)
[3] = tested on: Clostridium perfringens ATCC13124; assay: microbe, parasite or virus in culture; format: cell-based; details: ATCC13124, read-out: MIC (ATCC13124)
[4] = tested on: MDR Staphylococcus aureus strain (MDR); assay: MIC by broth microdilution against MDR Staphylococcus aureus; details: read-out: MIC (MDR)
[5] = tested on: MDR Enterococcus faecium strain (MDR); assay: MIC by broth microdilution against MDR Enterococcus faecium; details: read-out: MIC (MDR)
[6] = tested on: Clostridium perfringens clinical isolate (CI); assay: microbe, parasite or virus in culture; format: cell-based; details: read-out: MIC (CI)
[7] = tested on: Staphylococcus aureus ATCC29213; assay: MIC by broth microdilution against Staphylococcus aureus ATCC29213; details: ATCC29213, read-out: MIC (ATCC29213)
[8] = tested on: Clostridium difficile ATCC700057; assay: microbe, parasite or virus in culture; format: cell-based; details: for MIC: Clostridioides difficile, ATCC700057, read-out: MIC (ATCC700057)
Bacillus subtilis = format: cell-based

| SMILES | MIC [1] [µg/mL] | MIC (Enterococcus faecium) [µg/mL] | MIC [2] [µg/mL] | MIC [3] [µg/mL] | MIC [4] [µg/mL] | MIC [5] [µg/mL] | MIC [6] [µg/mL] | MIC [7] [µg/mL] | MIC [8] [µg/mL] | antibacterial activity against Bacillus subtilis (Bacillus subtilis) | selectivity for Clostridium difficile [8] |
| --- | --- | --- | --- | --- | --- | --- | --- | --- | --- | --- | --- |
| Cn1c(-c2ccc(N)cc2)nc2cc(-c3ccc4[nH]c(-c5ccc(N)cc5)nc4c3)ccc21 [Compound 5, 4,4′-(1-methyl-1H,1′H-5,5′-bibenzo[d]imidazole-2,2′-diyl)dianiline] | < 1 | < 1 | < 1 | 1 to 16 (≈ 2.32 to 37.2 µM) | 1 to 16 (≈ 2.32 to 37.2 µM) | < 1 | 1 to 16 (≈ 2.32 to 37.2 µM) | 1 to 16 (≈ 2.32 to 37.2 µM) | 1 to 16 (≈ 2.32 to 37.2 µM) |  |  |
| Nc1ccc(-c2nc3cc(-c4ccc5[nH]cnc5c4)ccc3[nH]2)cc1 [Compound 8, 4-(1H,1′H-5,5′-bibenzo[d]imidazol-2-yl)aniline] | 1 to 16 (≈ 3.07 to 49.2 µM) | 1 to 16 (≈ 3.07 to 49.2 µM) | 1 to 16 (≈ 3.07 to 49.2 µM) | 17 to 64 (≈ 52.2 to 197 µM) | 17 to 64 (≈ 52.2 to 197 µM) | 1 to 16 (≈ 3.07 to 49.2 µM) | 1 to 16 (≈ 3.07 to 49.2 µM) | 1 to 16 (≈ 3.07 to 49.2 µM) | 1 to 16 (≈ 3.07 to 49.2 µM) |  |  |
| Cn1c(-c2ccc(N)cc2)nc2ccc(-c3ccc4[nH]c(-c5ccc(N)cc5)nc4c3)cc21 [Compound 4, 4,4′-(3′-methyl-1H,3′H-5,5′-bibenzo[d]imidazole-2,2′-diyl)dianiline] | 1 to 16 (≈ 2.32 to 37.2 µM) | 1 to 16 (≈ 2.32 to 37.2 µM) | < 1 | > 64 | > 64 | < 1 | > 64 | > 64 | 17 to 64 (≈ 39.5 to 149 µM) |  |  |
| Nc1cccc(-c2nc3cc(-c4ccc5[nH]c(-c6cccc(N)c6)nc5c4)ccc3[nH]2)c1 [Compound 2, 3,3′-(1H,1′H-5,5′-bibenzo[d]imidazole-2,2′-diyl)dianiline] | 1 to 16 (≈ 2.4 to 38.4 µM) | 1 to 16 (≈ 2.4 to 38.4 µM) | 1 to 16 (≈ 2.4 to 38.4 µM) | > 64 | > 64 | 1 to 16 (≈ 2.4 to 38.4 µM) | > 64 | 1 to 16 (≈ 2.4 to 38.4 µM) | 1 to 16 (≈ 2.4 to 38.4 µM) |  |  |
| Nc1ccc(-c2nc3cc(-c4ccc5nc(-c6ccc(N)cc6)[nH]c5c4)ccc3[nH]2)cc1 [Compound 1, 4,4′-(1H,3′H-5,5′-bibenzo[d]imidazole-2,2′-diyl)dianiline] | < 1 | < 1 | < 1 | < 1 | < 1 | < 1 | < 1 | < 1 | < 1 |  |  |
| Nc1ccc(-c2nc3cc(-c4ccc5[nH]c(-c6ccccc6)nc5c4)ccc3[nH]2)cc1 [Compound 9, 4-(2′-phenyl-1H,1′H-5,5′-bibenzo[d]imidazol-2-yl)aniline] | < 1 | < 1 | < 1 | 17 to 64 (≈ 42.3 to 159 µM) | 1 to 16 (≈ 2.49 to 39.9 µM) | < 1 | 1 to 16 (≈ 2.49 to 39.9 µM) | 1 to 16 (≈ 2.49 to 39.9 µM) | 1 to 16 (≈ 2.49 to 39.9 µM) |  |  |
| CNc1ccc(-c2nc3cc(-c4ccc5[nH]c(-c6ccc(NC)cc6)nc5c4)ccc3[nH]2)cc1 [Compound 6, 4,4′-(1H,1′H-5,5′-bibenzo[d]imidazole-2,2′-diyl)bis(N-methylaniline)] | < 1 | < 1 | < 1 | 1 to 16 (≈ 2.25 to 36 µM) | < 1 | < 1 | 1 to 16 (≈ 2.25 to 36 µM) | < 1 | 1 to 16 (≈ 2.25 to 36 µM) |  |  |
| Oc1ccc(-c2nc3cc(-c4ccc5[nH]c(-c6ccc(O)cc6)nc5c4)ccc3[nH]2)cc1 [Compound 3, 4,4′-(1H,1′H-5,5′-bibenzo[d]imidazole-2,2′-diyl)diphenol] | < 1 | < 1 | < 1 | 1 to 16 (≈ 2.39 to 38.2 µM) | < 1 | < 1 | 1 to 16 (≈ 2.39 to 38.2 µM) | < 1 | < 1 |  |  |
| c1cc(-c2nc3cc(-c4ccc5[nH]c(-c6ccncc6)nc5c4)ccc3[nH]2)ccn1 [Compound 12, 2,2′-di(pyridin-4-yl)-1H,1′H-5,5′-bibenzo[d]imidazole] | < 1 | > 64 | < 1 | > 64 | > 64 | > 64 | > 64 | > 64 | < 1 | no significant antibacterial activity | highly selective for Clostridium difficile |
| Nc1ccc(-c2nc3cc(-c4ccc5[nH]c(-c6ccc(N)nc6)nc5c4)ccc3[nH]2)cn1 [Compound 11, 5,5′-(1H,1′H-5,5′-bibenzo[d]imidazole-2,2′-diyl)dipyridin-2-amine] | < 1 | 1 to 16 (≈ 2.39 to 38.2 µM) | < 1 | 17 to 64 (≈ 40.6 to 153 µM) | > 64 | 1 to 16 (≈ 2.39 to 38.2 µM) | > 64 | > 64 | < 1 |  |  |
| COc1ccc(-c2nc3cc(-c4ccc5[nH]c(-c6ccc(OC)cc6)nc5c4)ccc3[nH]2)cc1 [Compound 7, 2,2′-bis(4-methoxyphenyl)-1H,1′H-5,5′-bibenzo[d]imidazole] | < 1 | < 1 | < 1 | < 1 | < 1 | < 1 | < 1 | < 1 | < 1 |  |  |
| COc1ccc(-c2nc3ccc(-c4ccc5[nH]c(-c6ccccc6)nc5c4)cc3[nH]2)cc1 [Compound 10, 2′-(4-methoxyphenyl)-2-phenyl-1H,3′H-5,5′-bibenzo[d]imidazole] | < 1 | < 1 | < 1 | 1 to 16 (≈ 2.4 to 38.4 µM) | < 1 | < 1 | < 1 | < 1 | < 1 |  |  |
